{
  "source": "patent US20220214363A1",
  "about": "“NOVEL LIGAND ASSAYS” (InsituGen Limited, priority 2019, published 2022)",
  "target": "T1, AR (Homo sapiens, UniProt P10275)",
  "T1 sequence (P10275 1-920)": "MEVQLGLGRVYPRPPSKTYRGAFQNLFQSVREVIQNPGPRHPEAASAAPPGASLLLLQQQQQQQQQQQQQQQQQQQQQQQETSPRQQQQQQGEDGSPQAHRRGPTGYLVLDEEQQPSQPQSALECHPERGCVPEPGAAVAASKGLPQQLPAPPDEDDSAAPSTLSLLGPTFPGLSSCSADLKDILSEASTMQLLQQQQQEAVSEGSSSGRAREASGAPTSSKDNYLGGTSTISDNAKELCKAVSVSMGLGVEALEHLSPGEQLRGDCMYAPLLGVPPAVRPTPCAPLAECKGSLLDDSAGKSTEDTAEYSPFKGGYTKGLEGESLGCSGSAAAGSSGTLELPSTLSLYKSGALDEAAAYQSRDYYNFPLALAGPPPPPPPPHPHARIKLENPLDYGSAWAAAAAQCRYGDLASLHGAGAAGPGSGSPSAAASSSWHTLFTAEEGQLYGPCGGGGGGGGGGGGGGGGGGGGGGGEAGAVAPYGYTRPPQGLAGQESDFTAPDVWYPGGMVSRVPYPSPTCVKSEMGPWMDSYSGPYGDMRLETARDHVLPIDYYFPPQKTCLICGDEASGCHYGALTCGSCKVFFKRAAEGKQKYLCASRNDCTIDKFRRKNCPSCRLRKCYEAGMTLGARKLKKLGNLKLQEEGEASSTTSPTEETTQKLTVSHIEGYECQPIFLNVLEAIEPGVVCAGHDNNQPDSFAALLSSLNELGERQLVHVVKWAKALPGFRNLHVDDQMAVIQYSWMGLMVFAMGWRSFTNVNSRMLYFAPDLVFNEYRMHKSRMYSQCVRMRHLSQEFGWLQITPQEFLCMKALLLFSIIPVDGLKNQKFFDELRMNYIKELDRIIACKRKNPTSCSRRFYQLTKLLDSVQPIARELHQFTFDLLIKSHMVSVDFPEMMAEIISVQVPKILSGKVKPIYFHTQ",
  "conditions": "gelding urine sample spiked with trenbolone before deconjugation and extraction; vs ethanol control set at 100%",
  "source_text": "Spiked trenbolone represents a gelding urine sample that had been spiked with trenbolone before the deconjugation and extraction steps. T7 activity measured for the ethanol control was arbitrarily set at 100%.\nRacehorse urine samples were collected on race day and steroids deconjugated and extracted using routine processes. The extracted steroids were resuspended in ethanol and subjected to the assay.",
  "data": [
    {"molecule": "C[C@]12C=CC3=C4CCC(=O)C=C4CCC3C1CC[C@@H]2O", "note": "(stereo partly shown) [trenbolone]", "values": [
      {"measurement": "suppression of T7-generated Mango II", "result": "suppression of T7-generated Mango II"}
    ]}
  ]
}
